{"source": "ChEMBL document CHEMBL5154935", "about": "“Design, Synthesis, and Biological Evaluation of Novel Evodiamine Derivatives as Potential Antihepatocellular Carcinoma Agents” (J Med Chem, 2022)", "key": {"[1]": {"experiment": "Toxicity in BALB/c mouse xenografted with human Huh-7 cells assessed as decrease in body weight at 10 mg/kg, ip qd for 11 days and measured every 2 days", "type": "organism-based", "conditions": "in vivo, 264 h, time 11 day"}, "[2]": {"experiment": "Toxicity in BALB/c mouse xenografted with human Huh-7 cells assessed as aplastic anemia at 10 mg/kg, ip qd for 11 days and measured on day 11", "type": "organism-based", "conditions": "in vivo, 264 h, time 11 day"}, "[3]": {"experiment": "Toxicity in BALB/c mouse xenografted with human Huh-7 cells assessed as reduction in platelet levels at 10 mg/kg, ip qd for 11 days and measured on day 11", "type": "organism-based", "conditions": "in vivo, 264 h, time 11 day"}, "[4]": {"experiment": "Toxicity in BALB/c mouse xenografted with human Huh-7 cells assessed as histopathological change in heart at 10 mg/kg, ip qd for 11 days and measured after 12 days by hematoxylin and eosin staining based assay", "type": "organism-based", "conditions": "in vivo, 288 h, time 12 day"}, "[5]": {"experiment": "Acute toxicity in Kunming mouse assessed as animal survival at 400 mg/kg, ip measured for 14 consecutive days", "type": "organism-based", "conditions": "in vivo, 336 h, time 14 day"}, "[6]": {"experiment": "AUC (0 to t) in Sprague-Dawley rat at 80 mg/kg, ip measured upto 24 hrs by LC-MS analysis", "type": "ADME, organism-based", "parameters": "time < 24 hrs, dose 80 mg/kg, route ip", "conditions": "in vivo"}, "Huh-7 [7]": {"tested_on": "Huh-7", "experiment": "Antitumor activity against human Huh-7 cells xenografted in BALB/c mouse assessed as tumor growth inhibition at 10 mg/kg, ip qd for 11 days and measured every 2 days relative to control", "type": "functional", "conditions": "Huh-7, 264 h, time 11 day, read-out: TGI"}, "[8]": {"experiment": "Toxicity in BALB/c mouse xenografted with human Huh-7 cells assessed as histopathological change in lung at 10 mg/kg, ip qd for 11 days and measured after 12 days by hematoxylin and eosin staining based assay", "type": "organism-based", "conditions": "in vivo, 288 h, time 12 day"}, "Huh-7 [9]": {"tested_on": "Huh-7", "experiment": "Antitumor activity against human Huh-7 cells xenografted in BALB/c mouse assessed as reduction in neo-vascularisation at 10 mg/kg, ip qd for 11 days and measured after 12 days by hematoxylin and eosin staining based assay", "type": "functional, organism-based", "conditions": "time 12.0 day"}, "[10]": {"experiment": "Toxicity in BALB/c mouse xenografted with human Huh-7 cells assessed as histopathological change in spleen at 10 mg/kg, ip qd for 11 days and measured after 12 days by hematoxylin and eosin staining based assay", "type": "organism-based", "conditions": "in vivo, 288 h, time 12 day"}, "Huh-7 [11]": {"tested_on": "Huh-7", "experiment": "Antitumor activity in human Huh-7 cells xenografted in BALB/c mouse assessed as decrease in Ki-67 positive cells at 10 mg/kg, ip qd for 11 days and measured on day 12 by immunohistochemistry staining based assay", "type": "functional, organism-based", "conditions": "time 12.0 day"}, "[12]": {"experiment": "Acute toxicity in Kunming mouse assessed as frequency of defecation at 400 mg/kg, ip measured for 14 consecutive days", "type": "organism-based", "conditions": "in vivo, 336 h, time 14 day"}, "SK-HEP1 [13]": {"tested_on": "SK-HEP1", "experiment": "Antiproliferative activity against human SK-Hep1 cells assessed as inhibition of cell viability at less than 0.068 uM treated for 24 hrs by MTT assay", "type": "functional"}, "[14]": {"experiment": "Toxicity in BALB/c mouse xenografted with human Huh-7 cells assessed as bone marrow suppression at 10 mg/kg, ip qd for 11 days and measured on day 11", "type": "organism-based", "conditions": "in vivo, 264 h, time 11 day"}, "[15]": {"experiment": "Toxicity in BALB/c mouse xenografted with human Huh-7 cells assessed as histopathological change in liver at 10 mg/kg, ip qd for 11 days and measured after 12 days by hematoxylin and eosin staining based assay", "type": "organism-based", "conditions": "in vivo, 288 h, time 12 day"}, "[16]": {"experiment": "Tmax in Sprague-Dawley rat at 80 mg/kg, ip measured upto 24 hrs by LC-MS analysis", "type": "ADME, organism-based", "conditions": "in vivo"}, "HSC-T6": {"tested_on": "HSC-T6", "experiment": "Suppression of TGF-beta-1-stimulated rat HSC-T6 cells activation assessed as reduction in Col-1 levels preincubated with TGFbeta-1 followed by compound addition and measured after 24 to 48 hrs by ELISA", "type": "functional, cell-based", "conditions": "dose 10-80 nM, time 24-48 hrs, DDE = dose-dependent effect"}, "Huh-7 [17]": {"tested_on": "Huh-7", "experiment": "Induction of apoptosis in human Huh-7 cells assessed as cell shrinkage incubated for 24 hrs by Giemsa staining based microscopy", "type": "functional", "conditions": "dose 12-60 nM, DDE = dose-dependent effect"}, "[18]": {"experiment": "Cmax in Sprague-Dawley rat at 80 mg/kg, ip measured upto 24 hrs by LC-MS analysis", "type": "ADME, organism-based", "parameters": "dose 80 mg/kg, time < 24 hrs, route ip", "conditions": "in vivo"}, "SK-HEP1 [19]": {"tested_on": "SK-HEP1", "experiment": "Antiproliferative activity against human SK-Hep1 cells assessed as inhibition of cell viability at less than 0.227 uM treated for 24 hrs by MTT assay", "type": "functional"}, "[20]": {"experiment": "Half life in Sprague-Dawley rat at 80 mg/kg, ip measured upto 24 hrs by LC-MS analysis", "type": "ADME, organism-based", "conditions": "in vivo"}, "[21]": {"experiment": "Toxicity in BALB/c mouse xenografted with human Huh-7 cells assessed as reduction in RBC levels at 10 mg/kg, ip qd for 11 days and measured on day 11", "type": "organism-based, Erythrocyte", "conditions": "in vivo, 264 h, time 11 day"}, "[22]": {"experiment": "MRT (0 to t) in Sprague-Dawley rat at 80 mg/kg, ip measured upto 24 hrs by LC-MS analysis", "type": "ADME, organism-based", "conditions": "in vivo"}, "[23]": {"experiment": "Toxicity in BALB/c mouse xenografted with human Huh-7 cells assessed as histopathological change in kidney at 10 mg/kg, ip qd for 11 days and measured after 12 days by hematoxylin and eosin staining based assay", "type": "organism-based", "conditions": "in vivo, 288 h, time 12 day"}, "[24]": {"experiment": "Acute toxicity in Kunming mouse assessed as frequency of eating at 400 mg/kg, ip measured for 14 consecutive days", "type": "organism-based", "conditions": "in vivo, 336 h, time 14 day"}, "[25]": {"experiment": "Toxicity in BALB/c mouse xenografted with human Huh-7 cells assessed as reduction in WBC levels at 10 mg/kg, ip qd for 11 days and measured on day 11", "type": "organism-based", "conditions": "in vivo, 264 h, time 11 day"}, "SK-HEP1 [26]": {"tested_on": "SK-HEP1", "experiment": "Induction of mitochondrial membrane potential changes in human SK-Hep1 cells assessed as decrease in TMRE positive cells at 10 to 80 nM incubated for 24 hrs by TMRE staining based flow cytometry (reference value: 87.92 %)", "type": "functional", "parameters": "scale not given: the % may be the effect or the level left", "conditions": "dose 10-80 nM"}, "[27]": {"experiment": "Acute toxicity in Kunming mouse assessed as animal survival at 100 mg/kg, ip measured for 14 consecutive days", "type": "organism-based", "conditions": "in vivo, 336 h, time 14 day"}, "Huh-7 [28]": {"tested_on": "Huh-7", "experiment": "Antiproliferative activity against human Huh-7 cells assessed as inhibition of cell viability at less than 0.021 uM treated for 24 hrs by MTT assay", "type": "functional"}, "SK-HEP1 [29]": {"tested_on": "SK-HEP1", "experiment": "Induction of mitochondrial membrane potential changes in human SK-Hep1 cells assessed as decrease in TMRE positive cells at 10 to 80 nM incubated for 24 hrs by TMRE staining based flow cytometry (reference value: 86.19 %)", "type": "functional", "parameters": "scale not given: the % may be the effect or the level left", "conditions": "dose 10-80 nM"}, "[30]": {"experiment": "Acute toxicity in Kunming mouse assessed as frequency of eating at 100 mg/kg, ip measured for 14 consecutive days", "type": "organism-based", "conditions": "in vivo, 336 h, time 14 day"}, "Huh-7 [31]": {"tested_on": "Huh-7", "experiment": "Antiproliferative activity against human Huh-7 cells assessed as inhibition of cell viability at less than 0.023 uM treated for 24 hrs by MTT assay", "type": "functional"}, "[32]": {"experiment": "Acute toxicity in Kunming mouse assessed as frequency of defecation at 100 mg/kg, ip measured for 14 consecutive days", "type": "organism-based", "conditions": "in vivo, 336 h, time 14 day"}}, "note": "The source made the active and inactive calls. The calls are words filed in the database; no cut-off is given here.", "data": [{"smiles": "CC(=O)Oc1ccc2[nH]c3c(c2c1)CCN1C(=O)c2cc(F)cc(F)c2N(c2cccc(F)c2)C31", "note": "(stereo not given)", "values": [{"measurement": "Activity", "setting": "[1]", "result": "Non-Toxic"}, {"measurement": "Activity", "setting": "[2]", "result": "Non-Toxic"}, {"measurement": "Activity", "setting": "[3]", "result": "Non-Toxic"}, {"measurement": "Activity", "setting": "[4]", "result": "Non-Toxic"}, {"measurement": "Activity", "setting": "[5]", "result": "Non-Toxic"}, {"measurement": "AUC(0-t) at 24 h", "setting": "[6]", "result": 3070, "unit": "ng·h/mL"}, {"measurement": "inhibition in vivo at 10 mg/kg", "setting": "Huh-7 [7]", "result": 60.4, "unit": "%"}, {"measurement": "Activity", "setting": "[8]", "result": "Non-Toxic"}, {"measurement": "Activity", "setting": "Huh-7 [9]", "result": "Active"}, {"measurement": "Activity", "setting": "[10]", "result": "Non-Toxic"}, {"measurement": "Activity", "setting": "Huh-7 [11]", "result": "Active"}, {"measurement": "Activity", "setting": "[12]", "result": "Non-Toxic"}, {"measurement": "Activity", "setting": "SK-HEP1 [13]", "result": ">80", "unit": "%"}, {"measurement": "Activity", "setting": "[14]", "result": "Non-Toxic"}, {"measurement": "Activity", "setting": "[15]", "result": "Non-Toxic"}, {"measurement": "Tmax", "setting": "[16]", "result": 3, "unit": "h"}, {"measurement": "Activity", "setting": "HSC-T6", "result": "Dde"}, {"measurement": "Activity", "setting": "Huh-7 [17]", "result": "Dde"}, {"measurement": "Cmax", "setting": "[18]", "result": 350, "unit": "ng/mL"}, {"measurement": "Activity", "setting": "SK-HEP1 [19]", "result": ">80", "unit": "%"}, {"measurement": "half-life", "setting": "[20]", "result": 7.24, "unit": "h"}, {"measurement": "Activity", "setting": "[21]", "result": "Non-Toxic"}, {"measurement": "MRT last at 24 h", "setting": "[22]", "result": 11.5, "unit": "h"}, {"measurement": "Activity", "setting": "[23]", "result": "Non-Toxic"}, {"measurement": "Activity", "setting": "[24]", "result": "Non-Toxic"}, {"measurement": "Activity", "setting": "[25]", "result": "Non-Toxic"}, {"measurement": "Activity", "setting": "SK-HEP1 [26]", "result": 65.21, "unit": "%"}]}, {"smiles": "O=C1c2cc(F)cc(F)c2N(c2cccc(F)c2)C2c3[nH]c4ccc(O)cc4c3CCN12", "note": "(stereo not given)", "values": [{"measurement": "Activity", "setting": "[27]", "result": "Non-Toxic"}, {"measurement": "Activity", "setting": "Huh-7 [28]", "result": ">80", "unit": "%"}, {"measurement": "Activity", "setting": "SK-HEP1 [29]", "result": 63.69, "unit": "%"}, {"measurement": "Activity", "setting": "HSC-T6", "result": "Dde"}, {"measurement": "Activity", "setting": "Huh-7 [17]", "result": "Dde"}, {"measurement": "Activity", "setting": "[30]", "result": "Non-Toxic"}, {"measurement": "Activity", "setting": "Huh-7 [31]", "result": ">80", "unit": "%"}, {"measurement": "Activity", "setting": "[32]", "result": "Non-Toxic"}]}]}
